From the NIST ThermoML archive (doi:10.1016/j.jct.2014.02.009)
Numbers after ± are expanded uncertainties.

Settings: 100 kPa, Liquid; for viscosity: Falling or rolling sphere viscometry; for speed of sound: Sing-around technique in a fixed-path interferometer; for mass density: Vibrating tube method

| Compound | viscosity (293.15 K) [mPa·s] | speed of sound (293.15 K) [m/s] | mass density (293.15 K) [kg/m3] | viscosity (298.15 K) [mPa·s] | speed of sound (298.15 K) [m/s] | mass density (298.15 K) [kg/m3] | viscosity (303.15 K) [mPa·s] | speed of sound (303.15 K) [m/s] | mass density (303.15 K) [kg/m3] | viscosity (308.15 K) [mPa·s] | speed of sound (308.15 K) [m/s] | mass density (308.15 K) [kg/m3] | viscosity (313.15 K) [mPa·s] | speed of sound (313.15 K) [m/s] | mass density (313.15 K) [kg/m3] | viscosity (318.15 K) [mPa·s] | speed of sound (318.15 K) [m/s] | mass density (318.15 K) [kg/m3] | viscosity (323.15 K) [mPa·s] | speed of sound (323.15 K) [m/s] | further results |
| --- | --- | --- | --- | --- | --- | --- | --- | --- | --- | --- | --- | --- | --- | --- | --- | --- | --- | --- | --- | --- | --- |
| CC(=O)O.O=C1CCCN1 [γ-butyrolactam acetate] | 9.36 ± 0.24 | 1514.5 ± 3.2 | 1099.8 ± 2.3 | 7.84 ± 0.2 | 1496.7 ± 3.2 | 1095.35 ± 2.3 | 6.66 ± 0.17 | 1480.9 ± 3.2 | 1090.91 ± 2.3 | 5.72 ± 0.15 | 1464 ± 3.2 | 1086.47 ± 2.2 | 4.96 ± 0.13 | 1447.2 ± 3.2 | 1082.03 ± 2.2 | 4.35 ± 0.11 | 1429.3 ± 3.2 | 1077.57 ± 2.2 | 3.83 ± 0.1 | 1412.5 ± 3.2 | mass density (323.15 K): 1073.12 ± 2.2 kg/m3; viscosity (328.15 K): 3.4 ± 0.09 mPa·s; speed of sound (328.15 K): 1395.7 ± 3.2 m/s; mass density (328.15 K): 1068.69 ± 2.2 kg/m3; viscosity (333.15 K): 3.06 ± 0.08 mPa·s; speed of sound (333.15 K): 1379 ± 3.2 m/s; mass density (333.15 K): 1064.24 ± 2.1 kg/m3 |
| O=C1CCCN1.O=CO [γ-butyrolactam formate] | 7.17 ± 0.19 | 1531.2 ± 3.2 | 1140.78 ± 2.5 | 6.14 ± 0.16 | 1515.7 ± 3.2 | 1136.14 ± 2.5 | 5.32 ± 0.14 | 1500 ± 3.2 | 1131.51 ± 2.5 | 4.64 ± 0.12 | 1484.4 ± 3.2 | 1126.89 ± 2.4 | 4.09 ± 0.11 | 1468.5 ± 3.2 | 1122.25 ± 2.4 | 3.63 ± 0.09 | 1452.9 ± 3.2 | 1117.61 ± 2.4 | 3.25 ± 0.08 | 1437.5 ± 3.2 | mass density (323.15 K): 1112.99 ± 2.4 kg/m3; viscosity (328.15 K): 2.92 ± 0.08 mPa·s; speed of sound (328.15 K): 1422.1 ± 3.2 m/s; mass density (328.15 K): 1108.35 ± 2.4 kg/m3; viscosity (333.15 K): 2.65 ± 0.07 mPa·s; speed of sound (333.15 K): 1406.8 ± 3.2 m/s; mass density (333.15 K): 1103.72 ± 2.3 kg/m3 |
| CCCCCC(=O)O.O=C1CCCN1 [γ-butyrolactam hexanoate] | 14.67 ± 0.43 | 1429.3 ± 4.2 | 1018.78 ± 3.5 | 12.13 ± 0.35 | 1412.8 ± 4.2 | 1014.67 ± 3.5 | 10.16 ± 0.3 | 1396.2 ± 4.2 | 1010.57 ± 3.5 | 8.63 ± 0.25 | 1379.6 ± 4.2 | 1006.47 ± 3.4 | 7.4 ± 0.22 | 1363.2 ± 4.2 | 1002.37 ± 3.4 | 6.42 ± 0.19 | 1346.9 ± 4.2 | 998.27 ± 3.4 | 5.61 ± 0.16 | 1330.7 ± 4.2 | mass density (323.15 K): 994.17 ± 3.4 kg/m3; viscosity (328.15 K): 4.94 ± 0.14 mPa·s; speed of sound (328.15 K): 1314.7 ± 4.2 m/s; mass density (328.15 K): 990.08 ± 3.3 kg/m3; viscosity (333.15 K): 4.39 ± 0.13 mPa·s; speed of sound (333.15 K): 1298.6 ± 4.2 m/s; mass density (333.15 K): 985.98 ± 3.3 kg/m3 |
| CC(=O)O.O=C1CCCCCN1 [ε-caprolactam acetate] | 39.81 ± 1.2 | 1523.1 ± 4.2 | 1060.03 ± 3.8 | 29.03 ± 0.85 | 1507 ± 4.2 | 1055.92 ± 3.8 | 21.92 ± 0.64 | 1489.7 ± 4.2 | 1051.83 ± 3.8 | 17.03 ± 0.5 | 1472.8 ± 4.2 | 1047.74 ± 3.7 | 13.68 ± 0.4 | 1456.1 ± 4.2 | 1043.65 ± 3.7 | 11.1 ± 0.32 | 1439.3 ± 4.2 | 1039.56 ± 3.7 | 9.19 ± 0.27 | 1422.6 ± 4.2 | mass density (323.15 K): 1035.46 ± 3.6 kg/m3; viscosity (328.15 K): 7.67 ± 0.22 mPa·s; speed of sound (328.15 K): 1406 ± 4.2 m/s; mass density (328.15 K): 1031.37 ± 3.6 kg/m3; viscosity (333.15 K): 6.48 ± 0.19 mPa·s; speed of sound (333.15 K): 1389.5 ± 4.2 m/s; mass density (333.15 K): 1027.28 ± 3.6 kg/m3 |
| O=C1CCCCCN1.O=CO [ε-caprolactam formate] | 30.96 ± 0.9 | 1552 ± 4.2 | 1087.05 ± 4 | 23.92 ± 0.7 | 1536 ± 4.2 | 1082.87 ± 4 | 18.86 ± 0.55 | 1520.2 ± 4.2 | 1078.69 ± 4 | 15.14 ± 0.44 | 1504.4 ± 4.2 | 1074.51 ± 3.9 | 12.36 ± 0.36 | 1488.5 ± 4.2 | 1070.32 ± 3.9 | 10.24 ± 0.3 | 1472.8 ± 4.2 | 1066.13 ± 3.9 | 8.59 ± 0.25 | 1457.9 ± 4.2 | mass density (323.15 K): 1061.95 ± 3.9 kg/m3; viscosity (328.15 K): 7.3 ± 0.21 mPa·s; speed of sound (328.15 K): 1441.1 ± 4.2 m/s; mass density (328.15 K): 1057.77 ± 3.8 kg/m3; viscosity (333.15 K): 6.27 ± 0.18 mPa·s; speed of sound (333.15 K): 1425.1 ± 4.2 m/s; mass density (333.15 K): 1053.59 ± 3.8 kg/m3 |
| CCCCCC(=O)O.O=C1CCCCCN1 [ε-caprolactam hexanoate] | 42 ± 1.2 | 1472.7 ± 4.2 | 998.59 ± 3.4 | 30.85 ± 0.9 | 1456 ± 4.2 | 994.69 ± 3.4 | 23.4 ± 0.68 | 1439 ± 4.2 | 990.78 ± 3.3 | 18.11 ± 0.53 | 1421.9 ± 4.2 | 986.88 ± 3.3 | 14.25 ± 0.42 | 1404.8 ± 4.2 | 982.97 ± 3.3 | 11.59 ± 0.34 | 1387.8 ± 4.2 | 979.04 ± 3.3 | 9.44 ± 0.28 | 1370.8 ± 4.2 | mass density (323.15 K): 975.15 ± 3.2 kg/m3; viscosity (328.15 K): 7.91 ± 0.23 mPa·s; speed of sound (328.15 K): 1353.4 ± 4.2 m/s; mass density (328.15 K): 971.24 ± 3.2 kg/m3; viscosity (333.15 K): 6.64 ± 0.19 mPa·s; speed of sound (333.15 K): 1336.8 ± 4.2 m/s; mass density (333.15 K): 967.34 ± 3.2 kg/m3 |
